In the NIST ThermoML archive (doi:10.1016/j.jct.2010.04.022):
± gives the expanded uncertainty stated by the source.

Tests used:
[1] = refractive index (Na D-line) (dimensionless); conditions: 298.15 K; 101.33 kPa; Liquid; Standard Abbe refractometry
[2] = 298.15 K; 101.33 kPa; Liquid; Vibrating tube method
[3] = xn = mol fraction of the nth substance listed; conditions: 101 kPa, Liquid, Vibrating tube method

SMILES: CCOS(=O)(=O)[O-].CC[n+]1ccccc1 [1-ethylpyridinium ethyl sulfate]
- refractive index [1]: 1.50525 ± 0.00037
- mass density [2]: 1252 ± 0.4 kg/m3

SMILES: CCOS(=O)(=O)[O-].CC[n+]1ccccc1 [1-ethylpyridinium ethyl sulfate] + CCCCCC
- mass density ([3]; 283.15 K, x2 = 0.007): 1259.82 ± 0.99 kg/m3
- mass density ([3]; 298.15 K, x2 = 0.008): 1249.78 ± 1.1 kg/m3

SMILES: CCOS(=O)(=O)[O-].CC[n+]1ccccc1 [1-ethylpyridinium ethyl sulfate] + CCCCCCC
- mass density ([3]; 283.15 K, x2 = 0.007): 1260.51 ± 0.99 kg/m3
- mass density ([3]; 298.15 K, x2 = 0.007): 1250.63 ± 0.98 kg/m3

SMILES: CCOS(=O)(=O)[O-].CC[n+]1ccccc1 [1-ethylpyridinium ethyl sulfate] + c1ccccc1
- mass density ([3]; 283.15 K, x2 = 0.335): 1198.57 ± 1.7 kg/m3
- mass density ([3]; 298.15 K, x2 = 0.406): 1171.69 ± 1.7 kg/m3
